Here are results for 1 sequence from US11179450B2, “Long chain antigen containing interepitope sequence that promotes antigen presentation to T cells” (MIE UNIVERSITY, priority 2013, dated 2021).

Experiment [1] relates to MA p265 specific CD8+ T cells. Kind of experiment: Specific CD8+ T cell induction in mice, intracellular cytokine staining (MA p265 epitope). It is filed as in vivo, BALB/c mice. To be noted: FIG. 6; comparing one to six tyrosines. The method, then: (§1) Long chain peptide antigens MEN, all containing three types of mouse CD8+ T cell epitope sequences (MA p265 (Sequence No. 27), NY p81 (Sequence No. 29), and mERK2 9m (Sequence No. 28)), were synthesized. The interepitope sequences between the respective epitopes were one to six consecutive tyrosines (Sequence Nos. 1 and 9-12). Vaccines containing the respective long chain peptide antigens were administered to mice in the same manner as in FIG. 1 and the frequencies of CD8+ T cells specific to the respective epitope sequences were measured by the intracellular cytokine staining method.
(§2) Long chain peptide antigens MEN, all containing three types of mouse CD8+ T cell epitope sequences (MA p265 (Sequence No. 27), NY p81 (Sequence No. 29), and mERK2 9m (Sequence No. 28)), were synthesized. The interepitope sequences between the respective epitopes were five to ten consecutive tyrosines (Sequence Nos. 1 and 13-15). Vaccines containing the respective long chain peptide antigens were administered to mice in the same manner as in FIG. 1 and the frequencies of CD8+ T cells specific to the respective epitope sequences were measured by the intracellular cytokine staining method.
Each CHP/long chain peptide complex as the vaccine and the CpG oligo DNA as the adjuvant were administered at the same time to a mouse. Administration was performed by subcutaneous injection on the back of the mouse. […]

Experiment [2] relates to mERK2 9m specific CD8+ T cells. Kind of experiment: Specific CD8+ T cell induction in mice, intracellular cytokine staining (mERK2 9m epitope). The class given is in vivo, BALB/c mice. The method, then:
as §1, §2
Each CHP/long chain peptide complex as the vaccine and the CpG oligo DNA as the adjuvant were administered at the same time to a mouse. Administration was performed by subcutaneous injection on the back of the mouse. As the dose, the CHP/long chain peptide complex was administered at 0.05 to 0.1 mg equivalent of long chain peptide per administration. The CpG oligo DNA was administered at 0.05 mg per administration. One week after the final administration, spleen cells were separated by the following procedure from each vaccine-administered mouse. The spleen was isolated from the mouse and removed of blood by rinsing with RPMI1640 medium. After the spleen was triturated using a glass slide, the released cells were collected in RPMI1640 medium. After centrifuging (400×g, 5 minutes, 4° C.), the supernatant was removed and the cells were treated for 1 minute by adding 2 mL of ACK solution. […]

Experiment [3] deals with F4/80+ cells (macrophages). Kind of experiment: In vitro uptake of FAM-labeled long chain peptide antigens by antigen-presenting cells (macrophages). It is filed as cell-based. To be noted: FIG. 8, complexed with CHP, 10 μg/mL, mouse spleen cells, 60 minutes, in comparison to G6 and P6. The source says: Long chain peptide antigens MEN, all containing three types of mouse CD8+ T cell epitope sequences (MA p265 (Sequence No. 27), NY p81 (Sequence No. 29), and mERK2 9m (Sequence No. 28)), were synthesized. The interepitope sequences between the respective epitopes were respectively six consecutive tyrosines (Y6), six consecutive glycines (G6), or six consecutive prolines (P6) (Sequence Nos. 1-3). Each long chain peptide antigen, labeled with the fluorescent dye FAM, was complexed with CHP and administered in vitro to mouse dendritic cells and mouse macrophages. After 60 minutes, the fluorescence uptakes into the respective cells were measured by flow cytometry with the P5 fraction in the figure being deemed to correspond to the dendritic cells and the P6 fraction in the figure being deemed to correspond to the macrophages.
In vitro uptake of the long chain peptide antigens by antigen-presenting cells was measured as follows. Each long chain peptide labeled with a fluorescent dye was complexed with CHP by the method described above. Spleen cells separated from a normal mouse were added at 1×10^6 cells/0.5 mL/well to a 24-well plate. […] The uptake of the fluorescence-labeled long chain peptide antigens by CD11c^+ cells (dendritic cells) and F4/80^+ cells (macrophages) were observed using flow cytometry.

In experiment [4] the test system is F4/80+ cells (macrophages). Kind of experiment: Uptake of FAM-labeled long chain peptide antigens in individual animals, regional lymph node macrophages. It is filed as in vivo, BALB/c mice. To be noted: FIG. 9, complexed with CHP, subcutaneous, 16 hours after administration. Here is the method: The same FAM-labeled long chain peptide antigens as those in FIG. 8 were complexed with CHP and administered subcutaneously to mice. After 16 hours, cells were collected from a regional lymph node of the administration site, and the fluorescence uptakes into dendritic cells and mouse macrophages were measured by flow cytometry with the P4 fraction in the figure being deemed to correspond to the dendritic cells and the P5 fraction in the figure being deemed to correspond to the macrophages.
A test of uptake of long chain peptide antigens by antigen-presenting cells in individual animals was performed as follows. Each long chain peptide was fluorescence-labeled, complexed with a CHP nanogel, administered subcutaneously to BALB/c mice. 16 hours after administration, cells were collected from lymph nodes and after staining with the anti-CD11c antibody and the anti-F4/80 antibody, the uptake of the fluorescence-labeled long chain peptide antigens by CD11c^+ cells (dendritic cells) and F4/80^+ cells (macrophages) was analyzed by flow cytometry.

“SNPARYEFLYYYYYYQYIHSANVLYYYYYYRGPESRLL (Long chain peptide antigen, containing three types of mouse CD8+ T cell epitope sequences (MA p265, NY p81, and mERK2 9m)) [MEN(Y6)]”: the “induction of specific CD8+ T cells, MA p265 (first epitope)” value in experiment [1] is recorded as “highest”. In addition, the “induction of specific CD8+ T cells, mERK2 9m (second epitope)” value in experiment [2] (FIG. 6, comparing one to six tyrosines) is recorded as “observed to some degree”; in experiment [2] (FIG. 7, comparing five to ten tyrosines) it was “highest”. Further, the “fluorescence uptake into macrophages” value in experiment [3] is “significantly higher”. Besides, in experiment [4], the “fluorescence uptake into macrophages of the regional lymph node” value is listed as “clearly observed”.
